Experimental data taken from the CheMixHub viscosity set.
Values joined by “and” are separate entries in the source; they are usually repeats but may differ in a detail not shown here. Equal entries are not always repeated. ± gives the uncertainty stated by the source.

Assay: xn = mol fraction of the nth substance listed

Work on `COCCO` + O yielded a viscosity (298.15 K, 101 kPa, x1 = 0.01) of 0.9988 ± 0.021 mPa·s, a viscosity (298.15 K, 101 kPa, x1 = 0.025) of 1.169 ± 0.025 mPa·s and a viscosity (298.15 K, 101 kPa, x1 = 0.05) of 1.464 ± 0.031 mPa·s. It also gave a viscosity (298.15 K, 101 kPa, x1 = 0.056) of 1.516 ± 0.038 mPa·s, a viscosity (298.15 K, 101 kPa, x1 = 0.075) of 1.755 ± 0.037 mPa·s and a viscosity (298.15 K, 101 kPa, x1 = 0.1) of 2.023 ± 0.043 mPa·s. The viscosity (298.15 K, 101 kPa, x1 = 0.136) was 2.365 ± 0.055 mPa·s, the viscosity (298.15 K, 101 kPa, x1 = 0.15) was 2.475 ± 0.052 mPa·s and the viscosity (298.15 K, 101 kPa, x1 = 0.2) was 2.766 ± 0.059 mPa·s. The viscosity (298.15 K, 101 kPa, x1 = 0.25) was 2.908 ± 0.062 mPa·s and 2.871 ± 0.18 mPa·s and 2.871 ± 0.022 mPa·s, the viscosity (298.15 K, 101 kPa, x1 = 0.262) was 2.885 ± 0.061 mPa·s and the viscosity (298.15 K, 101 kPa, x1 = 0.3) was 2.942 ± 0.063 mPa·s. For the same compound, the viscosity (298.15 K, 101 kPa, x1 = 0.4) was 2.833 ± 0.06 mPa·s, the viscosity (298.15 K, 101 kPa, x1 = 0.48) was 2.582 ± 0.16 mPa·s and 2.582 ± 0.019 mPa·s and the viscosity (298.15 K, 101 kPa, x1 = 0.486) was 2.575 ± 0.044 mPa·s. It also gave a viscosity (298.15 K, 101 kPa, x1 = 0.5) of 2.606 ± 0.055 mPa·s, a viscosity (298.15 K, 101 kPa, x1 = 0.6) of 2.35 ± 0.05 mPa·s and a viscosity (298.15 K, 101 kPa, x1 = 0.7) of 2.102 ± 0.044 mPa·s. For the same compound, the viscosity (298.15 K, 101 kPa, x1 = 0.72) was 2.115 ± 0.13 mPa·s and 2.115 ± 0.017 mPa·s, the viscosity (298.15 K, 101 kPa, x1 = 0.8) was 1.874 ± 0.04 mPa·s and the viscosity (298.15 K, 101 kPa, x1 = 0.85) was 1.772 ± 0.037 mPa·s. For the same compound, the viscosity (298.15 K, 101 kPa, x1 = 0.9) was 1.681 ± 0.036 mPa·s, the viscosity (298.15 K, 101 kPa, x1 = 0.95) was 1.606 ± 0.034 mPa·s and the viscosity (298.15 K, 101.33 kPa, x1 = 0.0834) was 1.894 ± 0.011 mPa·s. For the same compound, the viscosity (298.15 K, 101.33 kPa, x1 = 0.1366) was 2.365 ± 0.014 mPa·s, the viscosity (298.15 K, 101.33 kPa, x1 = 0.15) was 2.442 ± 0.014 mPa·s and the viscosity (298.15 K, 101.33 kPa, x1 = 0.2131) was 2.768 ± 0.016 mPa·s. The viscosity (298.15 K, 101.33 kPa, x1 = 0.2601) was 2.876 ± 0.016 mPa·s, the viscosity (298.15 K, 101.33 kPa, x1 = 0.3005) was 2.904 ± 0.017 mPa·s and the viscosity (298.15 K, 101.33 kPa, x1 = 0.3558) was 2.886 ± 0.016 mPa·s. It also gave a viscosity (298.15 K, 101.33 kPa, x1 = 0.4352) of 2.751 ± 0.016 mPa·s, a viscosity (298.15 K, 101.33 kPa, x1 = 0.5001) of 2.616 ± 0.015 mPa·s and a viscosity (298.15 K, 101.33 kPa, x1 = 0.5219) of 2.571 ± 0.015 mPa·s. The viscosity (298.15 K, 101.33 kPa, x1 = 0.6161) was 2.367 ± 0.014 mPa·s, the viscosity (298.15 K, 101.33 kPa, x1 = 0.6806) was 2.232 ± 0.013 mPa·s and the viscosity (298.15 K, 101.33 kPa, x1 = 0.7514) was 2.076 ± 0.013 mPa·s. The viscosity (298.15 K, 101.33 kPa, x1 = 0.8181) was 1.93 ± 0.012 mPa·s, the viscosity (298.15 K, 101.33 kPa, x1 = 0.8844) was 1.786 ± 0.011 mPa·s and the viscosity (298.15 K, 101.33 kPa, x2 = 0.1049) was 1.671 ± 0.02 mPa·s. The viscosity (298.15 K, 101.33 kPa, x2 = 0.2062) was 1.86 ± 0.022 mPa·s, the viscosity (298.15 K, 101.33 kPa, x2 = 0.3055) was 2.064 ± 0.024 mPa·s and the viscosity (298.15 K, 101.33 kPa, x2 = 0.3977) was 2.288 ± 0.027 mPa·s. It also gave a viscosity (298.15 K, 101.33 kPa, x2 = 0.4976) of 2.538 ± 0.029 mPa·s, a viscosity (298.15 K, 101.33 kPa, x2 = 0.6002) of 2.755 ± 0.031 mPa·s and a viscosity (298.15 K, 101.33 kPa, x2 = 0.6964) of 2.866 ± 0.033 mPa·s. The viscosity (298.15 K, 101.33 kPa, x2 = 0.8004) was 2.68 ± 0.03 mPa·s, the viscosity (298.15 K, 101.33 kPa, x2 = 0.9005) was 1.989 ± 0.023 mPa·s and the viscosity (308.15 K, 101 kPa, x1 = 0.25) was 2.142 ± 0.13 mPa·s and 2.142 ± 0.019 mPa·s. For the same compound, the viscosity (308.15 K, 101 kPa, x1 = 0.72) was 1.68 ± 0.11 mPa·s and 1.68 ± 0.014 mPa·s, the viscosity (308.15 K, 101.33 kPa, x1 = 0.0461) was 1.143 ± 0.009 mPa·s and the viscosity (308.15 K, 101.33 kPa, x1 = 0.0623) was 1.242 ± 0.008 mPa·s. It also gave a viscosity (308.15 K, 101.33 kPa, x1 = 0.0881) of 1.52 ± 0.011 mPa·s, a viscosity (308.15 K, 101.33 kPa, x1 = 0.1239) of 1.829 ± 0.013 mPa·s and a viscosity (308.15 K, 101.33 kPa, x1 = 0.16) of 1.803 ± 0.011 mPa·s. The viscosity (308.15 K, 101.33 kPa, x1 = 0.1871) was 2.124 ± 0.016 mPa·s, the viscosity (308.15 K, 101.33 kPa, x1 = 0.2131) was 2.067 ± 0.012 mPa·s and the viscosity (308.15 K, 101.33 kPa, x1 = 0.2442) was 2.284 ± 0.017 mPa·s. For the same compound, the viscosity (308.15 K, 101.33 kPa, x1 = 0.2601) was 2.149 ± 0.012 mPa·s, the viscosity (308.15 K, 101.33 kPa, x1 = 0.2938) was 2.341 ± 0.018 mPa·s and the viscosity (308.15 K, 101.33 kPa, x1 = 0.3005) was 2.164 ± 0.013 mPa·s. It also gave a viscosity (308.15 K, 101.33 kPa, x1 = 0.326) of 2.342 ± 0.018 mPa·s, a viscosity (308.15 K, 101.33 kPa, x1 = 0.3558) of 2.15 ± 0.013 mPa·s and a viscosity (308.15 K, 101.33 kPa, x1 = 0.3709) of 2.319 ± 0.017 mPa·s. For the same compound, the viscosity (308.15 K, 101.33 kPa, x1 = 0.4014) was 2.284 ± 0.017 mPa·s, the viscosity (308.15 K, 101.33 kPa, x1 = 0.4352) was 2.077 ± 0.012 mPa·s and the viscosity (308.15 K, 101.33 kPa, x1 = 0.4504) was 2.217 ± 0.017 mPa·s. It also gave a viscosity (308.15 K, 101.33 kPa, x1 = 0.5001) of 2.001 ± 0.012 mPa·s, a viscosity (308.15 K, 101.33 kPa, x1 = 0.5219) of 1.96 ± 0.012 mPa·s and a viscosity (308.15 K, 101.33 kPa, x1 = 0.6161) of 1.818 ± 0.011 mPa·s. For the same compound, the viscosity (308.15 K, 101.33 kPa, x1 = 0.6806) was 1.726 ± 0.011 mPa·s, the viscosity (308.15 K, 101.33 kPa, x1 = 0.7514) was 1.624 ± 0.01 mPa·s and the viscosity (308.15 K, 101.33 kPa, x1 = 0.8844) was 1.443 ± 0.009 mPa·s. The viscosity (308.15 K, 101.33 kPa, x2 = 0.1034) was 1.452 ± 0.069 mPa·s, the viscosity (308.15 K, 101.33 kPa, x2 = 0.1923) was 1.477 ± 0.07 mPa·s and the viscosity (308.15 K, 101.33 kPa, x2 = 0.2978) was 1.629 ± 0.077 mPa·s. For the same compound, the viscosity (308.15 K, 101.33 kPa, x2 = 0.3944) was 1.768 ± 0.083 mPa·s, the viscosity (308.15 K, 101.33 kPa, x2 = 0.5527) was 1.918 ± 0.089 mPa·s and the viscosity (308.15 K, 101.33 kPa, x2 = 0.7415) was 2.002 ± 0.093 mPa·s. The viscosity (308.15 K, 101.33 kPa, x2 = 0.8372) was 1.768 ± 0.083 mPa·s, the viscosity (308.15 K, 101.33 kPa, x2 = 0.956) was 1.085 ± 0.054 mPa·s and the viscosity (313.15 K, 101 kPa, x1 = 0.25) was 1.842 ± 0.11 mPa·s and 1.842 ± 0.016 mPa·s. For the same compound, the viscosity (313.15 K, 101 kPa, x1 = 0.48) was 1.805 ± 0.11 mPa·s and 1.805 ± 0.014 mPa·s, the viscosity (313.15 K, 101 kPa, x1 = 0.72) was 1.517 ± 0.095 mPa·s and 1.517 ± 0.012 mPa·s and the viscosity (318.15 K, 101 kPa, x1 = 0.25) was 1.588 ± 0.096 mPa·s and 1.588 ± 0.013 mPa·s. The viscosity (318.15 K, 101 kPa, x1 = 0.48) was 1.627 ± 0.099 mPa·s and 1.627 ± 0.012 mPa·s, the viscosity (318.15 K, 101 kPa, x1 = 0.72) was 1.389 ± 0.087 mPa·s and 1.389 ± 0.011 mPa·s and the viscosity (318.15 K, 101.33 kPa, x1 = 0.0251) was 0.737 ± 0.005 mPa·s. For the same compound, the viscosity (318.15 K, 101.33 kPa, x1 = 0.0623) was 0.95 ± 0.006 mPa·s, the viscosity (318.15 K, 101.33 kPa, x1 = 0.15) was 1.325 ± 0.008 mPa·s and the viscosity (318.15 K, 101.33 kPa, x1 = 0.2131) was 1.505 ± 0.009 mPa·s. The viscosity (318.15 K, 101.33 kPa, x1 = 0.2601) was 1.585 ± 0.009 mPa·s, the viscosity (318.15 K, 101.33 kPa, x1 = 0.3005) was 1.626 ± 0.01 mPa·s and the viscosity (318.15 K, 101.33 kPa, x1 = 0.3558) was 1.655 ± 0.01 mPa·s. The viscosity (318.15 K, 101.33 kPa, x1 = 0.4352) was 1.653 ± 0.01 mPa·s, the viscosity (318.15 K, 101.33 kPa, x1 = 0.5001) was 1.615 ± 0.01 mPa·s and the viscosity (318.15 K, 101.33 kPa, x1 = 0.5219) was 1.602 ± 0.01 mPa·s. It also gave a viscosity (318.15 K, 101.33 kPa, x1 = 0.6161) of 1.513 ± 0.009 mPa·s, a viscosity (318.15 K, 101.33 kPa, x1 = 0.6806) of 1.444 ± 0.009 mPa·s and a viscosity (318.15 K, 101.33 kPa, x1 = 0.7514) of 1.36 ± 0.009 mPa·s. The viscosity (318.15 K, 101.33 kPa, x1 = 0.8181) was 1.281 ± 0.008 mPa·s, the viscosity (318.15 K, 101.33 kPa, x1 = 0.8844) was 1.191 ± 0.008 mPa·s and the viscosity (323.15 K, 101 kPa, x1 = 0.48) was 1.493 ± 0.091 mPa·s and 1.493 ± 0.014 mPa·s. The viscosity (323.15 K, 101 kPa, x1 = 0.72) was 1.294 ± 0.081 mPa·s and 1.294 ± 0.0099 mPa·s.
